Data reported in the NIST ThermoML archive (doi:10.1021/je800088e).
Values joined by “and” are separate entries in the source; they are usually repeats but may differ in a detail not shown here. Identical values can stand only once. Numbers after ± are expanded uncertainties.

Details: 364.52 K; Liquid; Closed cell (Static) method

vapor or sublimation pressure	SMILES
143 ± 1 kPa	CC(C)(C)O [2-methylpropan-2-ol]
143.9 ± 1 kPa	CC(C)O [propan-2-ol]

Continued, molecule first:

SMILES	vapor or sublimation pressure
C/C=C\C [(Z)-2-butene]	1190.5 ± 5.3 kPa and 1189.6 ± 5.2 kPa
CCC(C)O (stereo unspecified) [butan-2-ol]	74 ± 0.9 kPa
CO [methanol]	267.3 ± 1.4 kPa

Same assay, conditions: 364.53 K; Liquid; Closed cell (Static) method

vapor or sublimation pressure [kPa]	SMILES
1190.7 ± 5.2	C/C=C\C [(Z)-2-butene]
